Test results as given in patent US20150225377A1, “VEGFR3 INHIBITORS” (CANCER THERAPEUTICS CRC PTY LIMITED, priority 2012, published 2015).

How the values were obtained:
[1] = target: T1, VEGFR3 (Homo sapiens, UniProt P35916); test: VEGFR3 Phospho ELISA assay in HMVEC-dLyAD cells, VEGFC stimulated; assay type: cell-based; settings: 1 hour compound, 250 ng/mL VEGFC 10 minutes
T1 construct: host or cells: HMVEC-dLyAD
Description: Adult human dermal lymphatic microvascular endothelial cells (HMVEC-dLyAD) (Cat#CC-2810, Lonza) were seeded into clear-bottom, TC treated 12 well plates (Cat #665180, Greiner Bio-One) in EGM-2MV (Cat#CC-3202, Lonza) at 180,000 cells/well (volume 1 mL), and the plates incubated at 37° C. and 5% CO2 for 6 hours. The media was replaced with EBM-2 (Cat #CC-3156, Lonza)+0.1% BSA (Cat#A8412, Sigma) and cells incubated for a further period (overnight at 37° C. and 5% CO2).
96 well Maxisorp immuno plates (Cat #439454, Nunc) were coated with 100 μL of Total VEGFR3 capture antibody (Part #841888, Human Total VEGFR3/FLT4 ELISA Kit, Cat #DYC3491, R&D Systems), or Phospho VEGFR3 Capture antibody (Part #841885, Human Phospho VEGFR3/FLT4 ELISA Kit, Cat#DYC2724, R&D Systems). The plates were covered and incubated at room temperature overnight.
The coating antibody was flicked out and the plates washed three times with Wash Buffer (Phosphate buffered saline (137 mM NaCl, […], […], […], pH 7.2-7.4), 0.05% Tween 20). 300 μL of blocking buffer (5% v/v Tween 20, 5% w/v sucrose in PBS) was then added to wells and plate incubated for 2 hours at room temperature. Blocking solution is flicked out and plates washed three times and tapped dry.
Compound dilution series were prepared in EBM-2 (Cat #CC-3156, Lonza)+0.1% BSA (Cat#A8412, Sigma) with constant 0.1% DMSO concentration. 439 μL of sample or vehicle control was added to the cell monolayers. Cells are treated for 1 hour at 37° C. and 5% CO2. 250 ng/mL Recombinant human VEGFC (Cat #2179-VC, R & D Systems) added to wells and plates incubated for an additional 10 minutes at 37° C. and 5% CO2.
The media and compounds were removed and the cell monolayer washed once in Dulbecco's Phosphate Buffered Saline (Cat #21600-044, Invitrogen). 130 μL of Lysis buffer added to wells and cell lysate harvested and transferred to tubes and stored on ice. Complete lysis buffer was prepared by adding 10 μL Protease Inhibitor Cocktail (Cat #P8340, Sigma-Aldrich), 10 μL PMSF (Phenylmethanesulfonyl fluoride, Cat #P7626, Sigma-Aldrich, prepared as 500 mM DMSO stock) per 1 mL of Phosphosafe™ Extraction Reagent (Cat #71296, Merck).
The harvested samples were then diluted 1:2 in IC Diluent #18 (5% Tween 20/PBS) and 100 μL transferred to the Total and Phospho VEGFR3 coated, blocked and washed 96 well plates and incubated for 2 hours at room temperature. The plates were then washed three times in wash buffer as described above and tapped dry.
For detection of Total VEGFR3100 μL of Detection antibody (Total VEGFR3 Detection Antibody Part#841888 in Total VEGFR3 kit) diluted in IC Diluent #1 (1% w/v BSA (Cat #A7906, Sigma-Aldrich)/PBS) was added to wells and the plate incubated for 2 hours at room temperature. The plate was then washed three times in wash buffer and tapped dry. 100 μL of streptavidin-HPR diluted in IC diluent #1 Streptavidin-HRP, Part #890803 in Total VEGFR3 kit) was added to wells and incubated at room temperature for 20 minutes followed by washing as described above 100 μL Substrate solution (3,3′,5,5′-Tetramethylbenzidine (TMB) Liquid Substrate System for ELISA, Cat #T0440, Sigma-Aldrich) was added and the plate incubated for 20 minutes in the dark at room temperature followed by the addition of 50 μL stop solution (2 M H2SO4).
Total VEGFR3 levels were quantified using a Multiskan Ascent plate reader and Ascent software fitted with 450 nm filter.
For detection of Phospho VEGFR3, 100 μL of Detection antibody (Anti-Phospho-Tyrosine-HRP Detection Antibody, Part #841403 in Phospho VEGFR3 kit) was diluted in IC Diluent #1 (1% w/v BSA/PBS), added to the wells and the plate incubated for 2 hours at room temperature. The plate was then washed three times in wash buffer as described above and tapped dry. […]

[2] = target: T2, VEGFR3 cytoplasmic domain (Homo sapiens, UniProt P35916); test: VEGFR3 biochemical assay (AlphaScreen); settings: GST-VEGFR3 cytoplasmic domain, 500 μM ATP (modified form: His-fusion, 1 μM ATP)
T2 construct: VEGFR3 cytoplasmic domain (amino acids 798-1298) was purchased as N-terminal GST-fusion protein; GST (N); purchased
T2 sequence (P35916 798-1298 isoform P35916-1): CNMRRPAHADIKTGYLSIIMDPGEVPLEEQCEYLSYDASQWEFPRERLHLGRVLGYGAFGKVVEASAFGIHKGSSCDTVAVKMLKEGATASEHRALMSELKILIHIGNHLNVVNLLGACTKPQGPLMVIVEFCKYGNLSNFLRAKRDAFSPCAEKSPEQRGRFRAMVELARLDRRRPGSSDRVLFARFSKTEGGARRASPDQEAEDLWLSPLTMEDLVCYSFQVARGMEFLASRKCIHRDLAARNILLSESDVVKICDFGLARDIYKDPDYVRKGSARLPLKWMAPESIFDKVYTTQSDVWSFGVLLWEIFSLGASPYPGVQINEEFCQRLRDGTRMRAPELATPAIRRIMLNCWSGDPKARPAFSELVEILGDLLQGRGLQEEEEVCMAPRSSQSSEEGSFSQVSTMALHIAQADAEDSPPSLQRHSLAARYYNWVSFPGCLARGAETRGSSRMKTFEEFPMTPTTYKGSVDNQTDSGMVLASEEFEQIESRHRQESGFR
Description: Compounds of the invention may be tested for in vitro activity in the following assay: A biotin labelled peptide is used as substrate (amino acid sequence: Biotin-[…]NH2). VEGFR3 cytoplasmic domain (amino acids 798-1298) was purchased as N-terminal GST-fusion protein (“the enzyme”). The 15 μL assay reactions are run in Greiner brand white 384-well low volume plates. All reactions contained 10 mM HEPES pH 7.4, 10 mM MgCl2, 0.01% (v/v) Tween-20, 50 μM Na3VO4, 0.01% (w/v) albumin from chicken egg white, 1 mM Dithiothreitol, 111 nM peptide substrate, 500 μM ATP, and 3.8 ng/reaction enzyme, with the enzyme being omitted from negative control reactions. Compounds were added in a volume of […] from dilution series prepared in DMSO, positive and negative control reactions receiving the same volume DMSO without compound. The plates were sealed with adhesive seals and incubated for 90 minutes at 30 degree Celsius. The reactions were stopped with the detection reagents added at the same time as follows: Product formation was quantified as amplified luminescence between PerkinElmer AlphaScreen™ beads, using Streptavidin-coated donor and anti-phosphotyrosine (P-Tyr-100) acceptor beads. To each reaction, 5 μL containing 10 mM HEPES pH 7.4, 25 mM NaCl, 100 mM EDTA, 0.01% (v/v) Tween-20, and 6.25 μg/mL of each bead type were added. Plates were incubated for 6 hours before being read on a PerkinElmer EnVision™ plate reader in HTS Alphascreen™ mode. IC50 values were obtained by calculating percent inhibition (% I) for each reaction relative to controls on the same plate (% I=(I-CN)/(CP-CN) where CN/CP are the averages of the negative/positive reactions, respectively), then fitting the % I data vs. compound concentration [I] to % I=(A+((B−A)/(1+((C/[I])̂D)))) where A is the lower asymptote, B is the upper asymptote, C is the IC50 value, and D is the slope factor.
The above assay was also run in a modified form in some cases (indicated below with *). In these cases, VEGFR3 cytoplasmic domain (amino acids 818-1177, lacking 949-1002 of UniProt accession number P35916) was expressed and purified as N-terminal Hexa-His-fusion protein (“the enzyme”), rather than using the N-terminal GST-fusion protein. The assay conditions were the same as above but with 1 μM ATP and 8 ng/reaction of the enzyme.

[3] = target: T3, P397Y-FAK (Homo sapiens, UniProt Q05397); test: P397Y-FAK inhibition MSD platform cellular biomarker assay; assay type: cell-based; settings: MDA-231-LNA cells, 1 hour compound
T3 construct: endogenous in cells; host or cells: MDA-231-LNA
T3 sequence (Q05397 2-1052 limits assumed, stated change not applied): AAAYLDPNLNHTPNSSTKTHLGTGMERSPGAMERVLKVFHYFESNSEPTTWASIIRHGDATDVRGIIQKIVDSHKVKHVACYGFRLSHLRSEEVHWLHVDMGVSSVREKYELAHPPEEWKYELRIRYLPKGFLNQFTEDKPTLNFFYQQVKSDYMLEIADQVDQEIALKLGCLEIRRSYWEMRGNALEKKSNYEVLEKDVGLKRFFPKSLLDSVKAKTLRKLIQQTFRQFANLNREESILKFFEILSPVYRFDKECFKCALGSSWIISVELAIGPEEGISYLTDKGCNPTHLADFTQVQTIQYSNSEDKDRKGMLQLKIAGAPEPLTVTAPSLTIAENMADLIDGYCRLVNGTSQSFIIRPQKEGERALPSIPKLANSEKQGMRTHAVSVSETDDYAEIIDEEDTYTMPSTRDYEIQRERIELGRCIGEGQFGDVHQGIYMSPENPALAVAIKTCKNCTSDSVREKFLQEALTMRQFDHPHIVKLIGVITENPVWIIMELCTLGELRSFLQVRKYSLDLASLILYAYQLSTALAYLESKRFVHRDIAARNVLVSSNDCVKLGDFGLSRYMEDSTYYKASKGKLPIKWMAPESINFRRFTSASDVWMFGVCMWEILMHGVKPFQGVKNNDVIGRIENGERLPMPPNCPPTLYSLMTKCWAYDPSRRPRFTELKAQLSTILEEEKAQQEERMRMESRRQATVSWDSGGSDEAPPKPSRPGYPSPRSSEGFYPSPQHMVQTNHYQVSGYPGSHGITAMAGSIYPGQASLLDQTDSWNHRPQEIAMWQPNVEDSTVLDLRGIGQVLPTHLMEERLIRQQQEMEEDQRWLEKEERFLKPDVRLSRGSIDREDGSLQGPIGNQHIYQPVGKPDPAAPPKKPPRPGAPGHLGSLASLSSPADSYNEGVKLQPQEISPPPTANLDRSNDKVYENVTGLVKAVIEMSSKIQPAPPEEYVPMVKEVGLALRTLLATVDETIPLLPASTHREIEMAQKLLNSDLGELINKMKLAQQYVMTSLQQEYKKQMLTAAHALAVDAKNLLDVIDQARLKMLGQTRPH
Description: 96-well plates (cat#MA6000, Meso Scale Discovery) are coated with 30 μL/well of mouse monoclonal FAK antibody [63D5] (cat#ab72140, Abcam) pre-diluted in PBS to a concentration of 1 mg/mL. The plates are sealed with adhesive film and incubated for 16 hours at 4° C. The antibody is then flicked out of the plates and 150 μL of 3% [w/v] Blocker A (cat#R93AA-1, Meso Scale Discovery) is added. The plates are resealed with adhesive film and incubated at room temperature on a shaker set at medium speed for 2 hours. The plates are then washed three times with a solution containing 50 mM Tris-HCl pH 7.5, 0.15 M NaCl and 0.02% Tween-20, before cell lysate addition described below.
Cells are split 1:2 into T150 cell culture flasks 2 days prior to compound treatment. On the day prior to compound treatment, 200 μL media containing 20,000 cells is seeded into all wells of white, clear-bottom, TC treated, pclear, 96-well microtitre plates (cat#655098, Greiner Bio-One), and the plates are incubated at 37° C. and 5% CO2 for […]. 1 pUwell of compound is then added from dilution series prepared in DMSO. Negative control wells receive the same volume of DMSO without compounds, and positive control wells receive 2 μM of a control compound in the same volume of DMSO. Cells are treated for 1 hour at 37° C. and 5% CO2. The media/compounds are then flicked off and 55 pUwell of ice-cold complete lysis buffer is added. Complete lysis buffer is prepared by adding 1 tablet PhosSTOP complete phosphatase inhibitor (cat#04906837001, Roche) and 1 tablet Complete, Mini, EDTA-free, protease inhibitor (cat#04693159001, Roche) per 10 mL of incomplete lysis buffer (150 mM NaCl, 20 mM Tris-HCl pH 7.5, 1 mM EDTA, 1 mM EGTA, 1% Triton-X 100). Plates are incubated on ice for 30 minutes, with 30 seconds high speed plate shaking every 5 minutes. 40 μL/well of cell lysate is transferred to the coated, blocked and washed 96-well microtitre plates described above. The 96-well plates are sealed with adhesive film and incubated for 16 hours at 4° C. The plates are then washed three times with a solution containing 50 mM Tris-HCl pH 7.5, 0.15 M NaCl and 0.02% Tween-20 and tapped dry. 25 μL/well of detection solution (1% [w/v] Blocker A (cat#R93AA-1, Meso Scale Discovery) in 50 mM Tris-HCl pH 7.5, 0.15 M NaCl and 0.02% Tween-20, with 1:600 rabbit polyclonal FAK phospho Y397 antibody (cat#ab39967, Abcam), 1:1000 anti-rabbit sulfo-tag antibody (cat#R32AB-1 Meso Scale Discovery) and 1:40 reconstituted Blocker D-M (cat#D609-0100, Rockland Immunochemicals for Research)) is added, and the plates resealed with adhesive film and incubated for 1 hour at room temperature on a plate shaker set to medium speed. Plates are then washed three times with a solution containing 50 mM Tris-HCl pH 7.5, 0.15 M NaCl and 0.02% Tween-20 and tapped dry. 150 μL/well of Read Buffer T+Surfactant (cat#R92TC-1, Meso Scale Discovery) is then added, and pFAK-397 levels quantified using a Meso Scale Discovery SECTOR Imager 6000 instrument.

T1 sequence (P35916 25-1363): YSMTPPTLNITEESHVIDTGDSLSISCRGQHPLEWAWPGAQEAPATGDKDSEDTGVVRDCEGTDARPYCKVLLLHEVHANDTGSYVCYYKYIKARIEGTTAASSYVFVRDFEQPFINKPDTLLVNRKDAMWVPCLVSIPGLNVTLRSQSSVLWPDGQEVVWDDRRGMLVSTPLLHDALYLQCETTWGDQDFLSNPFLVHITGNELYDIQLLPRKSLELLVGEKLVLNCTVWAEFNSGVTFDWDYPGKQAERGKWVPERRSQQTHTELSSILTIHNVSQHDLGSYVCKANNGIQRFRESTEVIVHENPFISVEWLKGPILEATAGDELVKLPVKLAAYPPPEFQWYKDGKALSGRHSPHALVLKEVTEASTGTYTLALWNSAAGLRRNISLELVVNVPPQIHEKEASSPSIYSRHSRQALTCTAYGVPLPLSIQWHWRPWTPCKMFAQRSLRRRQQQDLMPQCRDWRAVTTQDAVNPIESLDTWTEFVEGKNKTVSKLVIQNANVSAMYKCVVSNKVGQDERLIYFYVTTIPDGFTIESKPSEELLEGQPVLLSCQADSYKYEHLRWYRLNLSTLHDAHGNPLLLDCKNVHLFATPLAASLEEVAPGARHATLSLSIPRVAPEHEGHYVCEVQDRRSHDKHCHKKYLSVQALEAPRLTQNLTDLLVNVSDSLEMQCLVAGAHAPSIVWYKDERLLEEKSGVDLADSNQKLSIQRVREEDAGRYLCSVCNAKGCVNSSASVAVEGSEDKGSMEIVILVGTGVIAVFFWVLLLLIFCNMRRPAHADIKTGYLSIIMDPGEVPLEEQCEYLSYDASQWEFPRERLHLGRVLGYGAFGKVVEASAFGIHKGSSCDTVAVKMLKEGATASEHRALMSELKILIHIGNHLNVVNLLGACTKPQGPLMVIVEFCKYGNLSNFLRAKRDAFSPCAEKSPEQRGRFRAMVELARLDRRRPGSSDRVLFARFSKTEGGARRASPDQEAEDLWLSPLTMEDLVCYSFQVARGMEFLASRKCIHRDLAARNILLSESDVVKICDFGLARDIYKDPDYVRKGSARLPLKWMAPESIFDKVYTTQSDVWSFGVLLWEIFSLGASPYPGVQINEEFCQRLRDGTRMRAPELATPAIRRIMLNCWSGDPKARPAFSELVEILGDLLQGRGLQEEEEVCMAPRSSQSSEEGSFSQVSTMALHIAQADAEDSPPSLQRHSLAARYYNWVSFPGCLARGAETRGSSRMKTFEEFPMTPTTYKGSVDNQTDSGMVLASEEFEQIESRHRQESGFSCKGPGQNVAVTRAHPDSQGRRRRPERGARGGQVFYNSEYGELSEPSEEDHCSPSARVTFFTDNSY

IC50 [2] [nM] | IC50 [3] [nM] | SMILES | IC50 [1] [nM]
70 | 7 | NC(=O)Cc1ccccc1CCc1nc(Nc2ccc(CNCCO)cc2)ncc1C(F)(F)F [Compound 19, 2-(2-(2-(2-((4-(((2-hydroxyethyl)amino)methyl)phenyl)amino)-5-(trifluoromethyl)pyrimidin-4-yl)ethyl)phenyl)acetamide] | 
44 | 119 | Cc1ccc(CC(N)=O)c(CCc2nc(Nc3ccc(C4CCNCC4)cc3)ncc2C(F)(F)F)c1 [Compound 21, 2-(4-methyl-2-(2-(2-((4-(piperidin-4-yl)phenyl)amino)-5-(trifluoromethyl)pyrimidin-4-yl)ethyl)phenyl)acetamide] | 
101 | 944 | NC(=O)Cc1c(CCc2nc(Nc3ccc(C4CCNCC4)cc3)ncc2C(F)(F)F)cccc1C(F)(F)F [Compound 22, 2-(2-(2-(2-((4-(piperidin-4-yl)phenyl)amino)-5-(trifluoromethyl)pyrimidin-4-yl)ethyl)-6-(trifluoromethyl)phenyl)acetamide] | 

SMILES | IC50 [2] [nM] | IC50 [3] [nM] | IC50 [1] [nM]
NC(=O)Cc1cc(F)ccc1CCc1nc(Nc2ccc(C3CCNCC3)cc2)ncc1C(F)(F)F [Compound 9, 2-(5-fluoro-2-(2-(2-((4-(piperidin-4-yl)phenyl)amino)-5-(trifluoromethyl)pyrimidin-4-yl)ethyl)phenyl)acetamide] | 68 |  | 379
NC(=O)Cc1ccccc1CCc1nc(Nc2ccc(C3CCNCC3)nc2)ncc1C(F)(F)F [Compound 13, 2-(2-(2-(2-((6-(piperidin-4-yl)pyridin-3-yl)amino)-5-(trifluoromethyl)pyrimidin-4-yl)ethyl)phenyl)acetamide] | 67 |  | 1030
